From patent EP0325048A1, “Imidazo- and pyrimido-quinoline, naphthyridine and pyridopyrazine compounds” (SCHERING CORPORATION, priority 1987, dated 1989)
Read-outs that look alike come from different tables or passages of the source.

How the values were obtained:
[1] = test system: reverse passive Arthus reaction in the pleural cavity of rats; assay: reverse passive Arthus reaction in the pleural cavity of rats (pleurisy); type: in vivo, Male Lewis rats; details: Rattus norvegicus, po; for inhibition in vivo at 3.125 mg/kg: 3.125 mg/kg p.o. (Table 4); for inhibition in vivo at 6.25 mg/kg: 6.25 mg/kg p.o. (Table 4); for inhibition in vivo at 12.5 mg/kg: 12.5 mg/kg p.o. (Table 4); for inhibition in vivo at 50 mg/kg: 50 mg/kg p.o. (Table 4); for inhibition in vivo at 1 mg/kg: 1 mg/kg p.o.; for inhibition in vivo at 3 mg/kg: 3 mg/kg p.o.; for inhibition in vivo at 9 mg/kg: 9 mg/kg p.o.
Experimental: Another procedure for testing for acute antiinflammatory activity measures the reverse passive Arthus reaction in the pleural cavity of rats.
Male Lewis rats weighing 180-220 grams were obtained from Charles River Breeding Laboratories, Wilmington, MA and permitted food and water ad libitum. Rooms housing the animals were temperature controlled with a 12 hour light and dark cycle.
Groups of five rats were dosed with drug 30 minutes prior to sensitization with BSA (1 mg/0.2 ml saline). Thirty minutes later the animals were challenged with the IgG fraction of a rabbit anti-bovine serum albumi antibodies (0.1 mg antibody protein per 0.2 ml saline Cooper Biomedical, Malvern, PA) in the pleural cavity. Four hours after challenge, the rats were sacrificed and the exudate harvested from the pleural cavity. The volume of the exudate was measured and the total number of cells determined with a Coulter Counter. [formula]
The results measured as percent inhibition of the infiltration of polymorphonuclear leucocytes (PMNs) and of edena are set forth below in Table 3.

[2] = test system: anaphylactic bronchospasm in sensitized guinea pigs; assay: anaphylactic bronchospasm in sensitized guinea pigs (modified Konzett-Rossler), antigen-induced SRS-A mediated bronchoconstriction; type: in vivo; details: for % Inhibition of Broncho-constriction: 2 hours before antigen challenge, inhibition of increase in intratracheal pressure; for % Inhibition of Bronchoconstriction: comparison compound (Table 2)
Experimental: The anti-allergy method of this invention is identified by tests which measure a compound's inhibition of anaphylactic bronchospasm in sensitized guinea pigs having antigen-induced SRS-A mediated bronchoconstriction. Allergic bronchospasm was measured in actively sensitized guinea pigs by a modification of the procedure of Konzett and Rossler, Arch. Exptl. Pathol. […] Male Hartley guinea pigs were sensitized with 5 mg ovalbumin injected ip and 5 mg injected sc in 1 ml saline on day 1 and 5mg ovalbumin injected ip on day 4. The sensitized animals were used 3-4 weeks later. To measure anaphylactic bronchospasm, sensitized guinea pigs were fasted overnight and the following morning were anesthetized with 0.9 ml/kg ip of dialurethane. The trachea and jugular vein were cannulated and the animals were ventilated by a Harvard rodent respirator. A side arm to the tracheal cannula was connected to a Harvard pressure transducer to obtain a continuous measure of intratracheal pressure. An increase in intratracheal pressure was taken as a measure of bronchoconstriction. Each guinea pig was injected iv with 1mg/kg propranolol, 5 mg/kg indomethacin and 2 mg/kg mepyramine given together in a volume of 1 ml/kg. Fifteen minutes later, the animals were challenged with antigen (0.5 per cent ovalbumin) delivered as an aerosol generated from a DeVilbiss Model 65 ultrasonic nebulizer and delivered through the tracheal cannula for 30 seconds. Bronchoconstriction was measured as the peak increase in intratracheal pressure occurring within 15 minutes after antigen challenge.

[3] = test system: Reversed Passive Arthus Reaction (RPAR)-PAW; assay: Reversed Passive Arthus Reaction (RPAR)-PAW technique; type: in vivo, male Lewis rats; details: 25 mg/kg (p.o.); paw volume at 2 hours post-challenge
Experimental: The compounds of this invention are also useful for the treatment of inflammation; thus, they are useful for the treatment of: arthritis, bursitis, tendonitis, gout and other inflammatory conditions. […] The potency of the compounds is determined using indomethacin as the standard. On the basis of the test results, an oral dosage range of about 5 milligrams per kilogram of body weight per day to about 50 milligrams per kilogram of body weight per day in divided doses taken at about 4 hour intervals is recommended, again with any of the conventional modes of administration for treatment of inflammation being suitable.
Male Lewis inbred albino rats weighing 180-220 grams obtained from Charles River Breeding Laboratories are used in these experiments. The rats are housed 3 animals/cage and food and water are allowed ad libitum. The animals are numbered 1-3 in each cage and color marked for identification purposes.
All reagents and drugs are prepared just prior to the study. […]
Groups of animals (6/group) are dosed with drug in MC by gavage one hour prior to sensitization with BSA. […] The volume of mercury displaced is converted to weight and recorded. […] Paw volumes are also recorded with a plethysmograph during the development of the inflammation at 2 hours post-challenge.

[4] = 4 h, read-out: Pleurisy (% Inhibition) Edema
[5] = 4 h, read-out: Pleurisy (% Inhibition) PMNs
[6] = 25 mg/kg p.o., exudate 4 hours after challenge, read-out: Pleurisy (% Inhibition) Edema
[7] = 25 mg/kg p.o., exudate 4 hours after challenge, read-out: Pleurisy (% Inhibition) PMNs

Q: Which inhibition in vivo at 3.125 mg/kg [1, 4] does the source give for `C[C@]12C=CC(=O)C=C1CC[C@@H]1[C@@H]2C(=O)C[C@@]2(C)[C@H]1CC[C@]2(O)C(=O)CO` [Prednisone, prednisone, reference compound] here?
A: Its inhibition in vivo at 3.125 mg/kg is 2%.

Q: What about the inhibition in vivo at 3.125 mg/kg [1, 5] of the same molecule?
A: Its inhibition in vivo at 3.125 mg/kg is 7%.

Q: And the inhibition in vivo at 6.25 mg/kg [1, 4]?
A: Its inhibition in vivo at 6.25 mg/kg is 17%.

Q: And the inhibition in vivo at 6.25 mg/kg [1, 5]?
A: The inhibition in vivo at 6.25 mg/kg was 16%.

Q: And the inhibition in vivo at 12.5 mg/kg [1, 4]?
A: Its inhibition in vivo at 12.5 mg/kg is 27%.

Q: What about the inhibition in vivo at 12.5 mg/kg [1, 5] of the same molecule?
A: Its inhibition in vivo at 12.5 mg/kg is 20%.

Q: And the inhibition in vivo at 25 mg/kg ([1]; 4 h, 25 mg/kg p.o. (Table 4), read-out: Pleurisy (% Inhibition) Edema)?
A: Its inhibition in vivo at 25 mg/kg is 44%.

Q: What about the inhibition in vivo at 25 mg/kg ([1]; 4 h, 25 mg/kg p.o. (Table 4), read-out: Pleurisy (% Inhibition) PMNs) of the same molecule?
A: The inhibition in vivo at 25 mg/kg was 25%.

Q: And the inhibition in vivo at 50 mg/kg [1, 4]?
A: Its inhibition in vivo at 50 mg/kg is 58%.

Q: And the inhibition in vivo at 50 mg/kg [1, 5]?
A: The inhibition in vivo at 50 mg/kg was 42%.

Q: What does the source list for `CN1CCn2c1c(-c1ccccc1)c1ncccc1c2=O` [R^3=CH3, R^4=phenyl, n=2, 2,3-dihydro-1-methyl-10-phenylimidazo[1,2-g][1,6]naphthyridin-5(1H)-one]?
A: inhibition in vivo at 25 mg/kg [1, 6]: 56%; inhibition in vivo at 25 mg/kg [1, 7]: 69%

Q: For `O=c1c2cccnc2c(-c2cccc(Cl)c2)c2n1CCCN2` [R^3=H, R^4=3-chloro phenyl, n=3, 11-(3-chlorophenyl)-1,2,3,4-tetrahydro-6H-pyrimido[1,2-g][1,6]naphthyridin-6-one], which inhibition in vivo at 25 mg/kg [1, 6] is on record?
A: Its inhibition in vivo at 25 mg/kg is 76%.

Q: And the inhibition in vivo at 25 mg/kg [1, 7]?
A: The inhibition in vivo at 25 mg/kg was 82%.

Q: What about the “% Inhibition of Broncho-constriction” value ([2]; 5 mg/kg p.o.) of the same molecule?
A: The value was 54%.

Q: `O=c1c2cccnc2c(-c2cccc(Cl)c2)c2n1CCN2` [R^3=H, R^4=3-chloro-phenyl, n=2, 10-(3-chlorophenyl)-2,3-dihydroimidazo[1,2-g][1,6]naphthyridin-5(1H)-one] was tested. Which “% Inhibition of Broncho-constriction” value ([2]; 5 mg/kg p.o.) did it give?
A: Its value is 43%.

Q: Which results are given for `COc1cccc(-c2c3n(c(=O)c4cccnc24)CCN3)c1` [R^3=H, R^4=3-methoxy-phenyl, n=2, 2,3-dihydro-10-(3-methoxyphenyl)imidazo-[1,2-g][1,6]naphthyridin-5(1H)-one]?
A: inhibition in vivo at 25 mg/kg [1, 6]: 69%; inhibition in vivo at 25 mg/kg [1, 7]: 79%; % Inhibition of Broncho-constriction ([2]; 5 mg/kg p.o.): 61%

Q: What does the source list for `O=c1c2cccnc2c(-c2ccc(Cl)cc2)c2n1CCN2` [R^3=H, R^4=4-chloro-phenyl, n=2, 10-(4-chlorophenyl)-2,3-dihydro-imidazo[1,2-g][1,6]naphthyridin-5(1H)-one]?
A: inhibition in vivo at 25 mg/kg [1, 6]: 92%; inhibition in vivo at 25 mg/kg [1, 7]: 95%; % Inhibition of Broncho-constriction ([2]; 5 mg/kg p.o.): 11%

Q: With `COc1ccc(-c2c3n(c(=O)c4cccnc24)CCN3)cc1` [R^3=H, R^4=4-methoxy-phenyl, n=2, 2,3-dihydro-10-(4-methoxyphenyl)imidazo-[1,2-g][1,6]naphthyridin-5(1H)-one] as the molecule, how does the inhibition in vivo at 25 mg/kg [1, 6] read?
A: The inhibition in vivo at 25 mg/kg was 42%.

Q: What about the inhibition in vivo at 25 mg/kg [1, 7] of the same molecule?
A: Its inhibition in vivo at 25 mg/kg is 49%.

Q: And the “% Inhibition of Broncho-constriction” value ([2]; 10 mg/kg p.o.)?
A: Its value is 8%.

Q: Which inhibition [3] does the source give for `Cc1ccc(-c2c3n(c(=O)c4cccnc24)CCN3)cc1` [R^3=H, R^4=4-methyl phenyl, n=2, 2,3-dihydro-10(4-methylphenyl)imidazo-[1,2-g][1,6]naphthyridin-5(1H)-one] here?
A: The inhibition was 42%.

Q: What about the inhibition in vivo at 25 mg/kg [1, 6] of the same molecule?
A: The inhibition in vivo at 25 mg/kg was 42%.

Q: And the inhibition in vivo at 25 mg/kg [1, 7]?
A: Its inhibition in vivo at 25 mg/kg is 53%.

Q: And the “% Inhibition of Broncho-constriction” value ([2]; 5 mg/kg p.o.)?
A: The value was 1%.

Q: How did the inhibition in vivo at 25 mg/kg [1, 6] turn out when `O=c1c2cccnc2c(-c2cccc3ccccc23)c2n1CCN2` [R^3=H, R^4=naphthyl, n=2, 2,3-dihydro-10-(1-naphthalenyl)imidazo-[1,2-g][1,6]naphthyridin-5(1H)-one] was run?
A: The inhibition in vivo at 25 mg/kg was 28%.

Q: What about the inhibition in vivo at 25 mg/kg [1, 7] of the same molecule?
A: The inhibition in vivo at 25 mg/kg was 50%.

Q: Which inhibition [3] does the source give for `O=c1c2cccnc2c(-c2ccccc2)c2n1CCN2` [R^3=H, R^4=phenyl, n=2, 2,3-dihydro-10-phenylimidazo[1,2-g][1,6]-naphthyridin-5(1H)-one] here?
A: Its inhibition is 92%.

Q: And the inhibition in vivo at 1 mg/kg [1, 4]?
A: The inhibition in vivo at 1 mg/kg was 9%.

Q: And the inhibition in vivo at 1 mg/kg [1, 5]?
A: Its inhibition in vivo at 1 mg/kg is 3%.

Q: What about the inhibition in vivo at 3 mg/kg [1, 4] of the same molecule?
A: The inhibition in vivo at 3 mg/kg was 25%.

Q: And the inhibition in vivo at 3 mg/kg [1, 5]?
A: The inhibition in vivo at 3 mg/kg was 28%.

Q: And the inhibition in vivo at 9 mg/kg [1, 4]?
A: Its inhibition in vivo at 9 mg/kg is 34%.

Q: What about the inhibition in vivo at 9 mg/kg [1, 5] of the same molecule?
A: The inhibition in vivo at 9 mg/kg was 54%.

Q: And the inhibition in vivo at 25 mg/kg [1, 6]?
A: Its inhibition in vivo at 25 mg/kg is 55%.

Q: And the inhibition in vivo at 25 mg/kg [1, 7]?
A: The inhibition in vivo at 25 mg/kg was 90%.

Q: And the “% Inhibition of Broncho-constriction” value ([2]; 10 mg/kg p.o.)?
A: Its value is 16%.

Q: With `Cn1c(=O)c2[nH]cnc2n(C)c1=O` [aminophylline, reference compound] as the molecule, how does the “% Inhibition of Bronchoconstriction” value ([2]; 18 mg/kg p.o.) read?
A: The value was 21%.

Q: What about the “% Inhibition of Bronchoconstriction” value ([2]; 53 mg/kg p.o.) of the same molecule?
A: The value was 58%.

Q: Which “% Inhibition of Bronchoconstriction” value ([2]; 3 mg/kg p.o.) does the source give for `C[C@@H]1C[C@H]2[C@@H]3CCC4=CC(=O)C=C[C@]4(C)[C@@]3(F)[C@@H](O)C[C@]2(C)[C@@]1(O)C(=O)CO` [dexamethasone, reference compound] here?
A: The value was 38%.

Q: What about the “% Inhibition of Bronchoconstriction” value ([2]; 10 mg/kg p.o.) of the same molecule?
A: The value was 46%.

Q: For `CC(C)(C)c1ccc(C(O)CCCN2CCC(C(O)(c3ccccc3)c3ccccc3)CC2)cc1` (stereo not shown) [terfenadine, reference compound], which “% Inhibition of Bronchoconstriction” value ([2]; 30 mg/kg p.o.) is on record?
A: Its value is 5%.
